Assay [1] has as its system T1, Pseudomonas aeruginosa ATCC 27853.
T1 construct: ATCC 27853
The assay can be described thus: microbe, parasite or virus in culture. Further details: CLSI broth microdilution MIC in cation-adjusted Mueller Hinton broth, standard inoculum. The conditions noted are these: ATCC27853, inoculum 5 x 10^5 CFU/mL, run 1. The method, then:
(§1) Each strain was tested at the standard inoculum of 5 × 10^5 colony forming units (CFU)/mL, as well as at inocula lower (5 × 10^4) and greater (5 × 10^6) than the standard inoculum. Antibacterial susceptibility testing for each P. aeruginosa isolate obtained from the four isolate sources listed above was performed using standard CLSI broth microdilution methodology using cation-adjusted Mueller Hinton broth.

In assay [2] the test system is T2, Pseudomonas aeruginosa CLB 24228.
T2 construct: CLB 24228
The assay can be described thus: microbe, parasite or virus in culture. Further details: CLSI broth microdilution MIC in cation-adjusted Mueller Hinton broth, standard inoculum. Particulars: CLB24228, inoculum 5 x 10^5 CFU/mL, run 1. The method, then:
as §1

The record followed here is publication PMC6610938 (BMC Microbiology, 2019).

Converted amounts (≈) assume the structure as drawn.

On to `C[C@@H](O)[C@H]1C(=O)N2C(C(=O)O)=C(SCCNC=N)C[C@H]12` [IMI, imipenem], for which the MIC in assay [1] stood at 2 µg/mL (≈ 6.68 µM); in assay [2], 32 µg/mL (≈ 107 µM).
